Test results reported in US20050136444A1 (priority 2003, published 2005).
Counter-ions that a name gives are not always drawn. Like-named read-outs stand apart in the source and are kept apart here.

What was measured:
[1] = molecular target: T1, NPFF2 (Homo sapiens, UniProt Q9Y5X5); assay: Receptor Selection and Amplification Technology (R-SAT) functional assay, NPFF2; assay type: cell-based
T1 construct: expressed in transfected cells; host or cells: NIH3T3
Method: (§1) Briefly, NIH3T3 cells were grown in 96 well tissue culture plates to 70-80% confluence. Cells were transfected for 16-20 h h with plasmid DNAs using Polyfect (Qiagen Inc.) as per manufacturer's protocols. R-SAT's were generally performed with 40 ng/well of receptor and 20 ng/well of β-galactosidase plasmid DNA. All receptor and G-protein constructs used were in the pSI-derived mammalian expression vector (Promega Inc) as described previously. […] For large-scale transfections, cells were transfected for 16-20 h, then trypsinized and frozen in DMSO. Frozen cells were later thawed, plated at ˜20,000 cells per well of a 96 half-area well plate that contained drug. With both methods, cells were then grown in a humidified atmosphere with 5% ambient CO2 for five days. Media was then removed from the plates and marker gene activity was measured by the addition of the β-galactosidase substrate o-nitrophenyl β-D-galactopyranoside (ONPG, in PBS with 0.5% NP-40). The resulting colorimetric reaction was measured in a spectrophotometric plate reader (Titertek Inc.) at 420 nm. All data were analyzed using the computer program XLFit (IDBSm).
(§2) R-SAT assay was conducted as set forth in […]

[2] = molecular target: NPFF1 (Homo sapiens, UniProt Q9GZQ6); assay: Receptor Selection and Amplification Technology (R-SAT) functional assay, NPFF1; assay type: cell-based; parameters: expressed in transfected cells; host or cells: NIH3T3; details: for EC50: NA = No activity detectable at the highest dose tested (20 μM), read-out: NPFF1 pEC50 (converted)
Method: as §1, §2

[3] = tested on: rats; assay: Observed behaviors / side effects after systemic administration; assay type: in vivo, rat; details: rats, i.p.
Method: These behaviors typically precede “barrel-rolling” seizures.
These effects persisted between 15 and 20 minutes. These effects were not observed in rats that received doses less than 10 mg/kg.
These effects persisted between 15 and 20 minutes and were shown by both sham-operated and SNL rats. These effects were not observed in rats that received doses less than 10 mg/kg. [drawing 22]
However, these effects were more robust and of longer duration (60-90 min).
These effects persisted between 60 and 90 minutes and were shown by both sham-operated and SNL rats. These effects were not observed in rats that received doses less than 10 mg/kg. [drawing 23]
A model of neuropathic pain was created in rats by tight ligation of the L5 and L6 spinal nerves. […] Rats were then treated with various doses of dPQR (3, 10 and 30 mg/kg, i.p.) and paw withdrawal thresholds were tested across a period of 3 hours.
A model of neuropathic pain was created in rats by tight ligation of the L5 and L6 spinal nerves. […] Rats were then treated with various doses of Compound 3099 (1, 3 and 10 mg/kg, i.p.) and paw withdrawal thresholds were tested across a period of 3 hours.
In an attempt to increase the efficacy of Compound 3099 in the SNL model, we administered a dose of 30 mg/kg (i.p.) to SNL rats. […] Further, these behaviors were also transient, such that, by the end of the testing period these effects appeared to have resolved.

[4] = molecular target: T2, NPFF2b (Homo sapiens, UniProt Q9Y5X5); assay: cAMP assay in transiently transfected HEK-T cells, NPFF2; assay type: cell-based; details: HEK-T cell, read-out: NPFF2b % Efficacy Mean
T2 construct: expressed in transfected cells; host or cells: HEK-T
Method: (§3) An assay was established for measuring cAMP in transiently transfected cells that takes advantage of the fact that most cells that are transfected with one gene, can be simultaneously transfected with other genes. Thus, the NPFF1 and NPFF2 receptors were transfected along with a Gs-coupled receptor (EP2) at a ratio of 5:1.
This set up was routinely used for the transfection of HEK-T cells with NPFF1 and NPFF2 receptors. […] Cells were incubated for 15 minutes at 37° C. At the end of incubation, cells were lysed and the remainder of the assay performed as per DiscoveRx protocol.
Cells were incubated for another 15 minutes at 37° C. following which the cells were lysed and processed as per kit protocol.

[5] = tested on: 52° C. Water Tail Flick Test; assay: 52° C. Water Tail Flick Test, intrathecal administration; assay type: in vivo, rat; details: rats
Method: Rats were implanted with chronically indwelling intrathecal catheters (PE-10; 7.5 cm) allowing for the delivery of compounds to the lumbar spinal cord. As a positive control, rats were treated with various doses of morphine (3, 10 and 30 μg).
Rats were implanted with chronically indwelling intrathecal catheters (PE-10; 7.5 cm) allowing for the delivery of compounds to the lumbar spinal cord.
Rats were implanted with chronically indwelling intrathecal catheters (PE-10; 7.5 cm) allowing for the delivery of compounds to the lumbar spinal cord. In order to rule out the possibility that the lack of antinociception produced by NPFF was due to the degradation of the peptide we administered 1DME (a stable NPFF analog).

[6] = tested on: Barrel Rotations; details: 60 μg, reported by Panula et al. 1996; cited from earlier work
[7] = tested on: Barrel Rotations; assay: Barrel rotations after ICV administration of NPFF; assay type: in vivo, rat; details: naive rats
Source text: Given that this is the only mention in the literature with respect to NPFF and barrel-rotation, we attempted to replicate this effect using naive rats implanted with ICV cannula.

[8] = molecular target: T3, EP2 receptor (Homo sapiens, UniProt P43116); assay: cAMP response to PGE2 in HEK-T cells (EP2 co-transfection); assay type: cell-based; details: doses as high 10 μM
T3 construct: expressed in transfected cells; host or cells: HEK-T
Source text: as §3

[9] = R-SAT, Table 1, Efficacy is relative to endogenous ligand, read-out: NPFF2 % Efficacy
[10] = R-SAT, Table 1, NA = No activity detectable at the highest dose tested (20 μM), read-out: NPFF2 pEC50 (converted)
[11] = R-SAT, Table 1, Efficacy is relative to endogenous ligand, read-out: NPFF1 % Efficacy

T1 sequence (Q9Y5X5 103-522): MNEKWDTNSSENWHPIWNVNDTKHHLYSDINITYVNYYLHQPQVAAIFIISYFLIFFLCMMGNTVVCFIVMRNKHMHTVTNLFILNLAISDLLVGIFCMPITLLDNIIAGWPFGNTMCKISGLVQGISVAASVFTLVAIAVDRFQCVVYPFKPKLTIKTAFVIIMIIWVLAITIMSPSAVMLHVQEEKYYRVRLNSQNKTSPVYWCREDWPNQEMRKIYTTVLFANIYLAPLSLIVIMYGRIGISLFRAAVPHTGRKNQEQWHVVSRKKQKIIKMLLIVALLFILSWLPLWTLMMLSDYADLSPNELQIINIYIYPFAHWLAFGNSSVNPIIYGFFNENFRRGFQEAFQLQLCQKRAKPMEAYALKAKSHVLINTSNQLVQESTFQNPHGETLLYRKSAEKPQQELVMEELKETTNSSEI
Sequence of NPFF1 (Q9GZQ6 whole entry, species assumed): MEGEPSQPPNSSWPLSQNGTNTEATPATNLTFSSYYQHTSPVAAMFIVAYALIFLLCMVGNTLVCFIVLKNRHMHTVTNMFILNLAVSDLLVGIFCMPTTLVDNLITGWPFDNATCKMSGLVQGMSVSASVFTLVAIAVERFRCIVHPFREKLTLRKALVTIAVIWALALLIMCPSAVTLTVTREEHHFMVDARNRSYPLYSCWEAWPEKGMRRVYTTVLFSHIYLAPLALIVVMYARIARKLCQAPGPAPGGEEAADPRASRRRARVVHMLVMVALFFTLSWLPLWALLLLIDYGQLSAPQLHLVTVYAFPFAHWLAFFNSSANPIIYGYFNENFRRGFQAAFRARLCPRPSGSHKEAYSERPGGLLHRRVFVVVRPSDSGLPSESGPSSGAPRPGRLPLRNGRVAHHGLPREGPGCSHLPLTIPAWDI
T2 sequence (Q9Y5X5 103-522 limits assumed): as the sequence (Q9Y5X5 103-522) above
T3 sequence (P43116 whole entry): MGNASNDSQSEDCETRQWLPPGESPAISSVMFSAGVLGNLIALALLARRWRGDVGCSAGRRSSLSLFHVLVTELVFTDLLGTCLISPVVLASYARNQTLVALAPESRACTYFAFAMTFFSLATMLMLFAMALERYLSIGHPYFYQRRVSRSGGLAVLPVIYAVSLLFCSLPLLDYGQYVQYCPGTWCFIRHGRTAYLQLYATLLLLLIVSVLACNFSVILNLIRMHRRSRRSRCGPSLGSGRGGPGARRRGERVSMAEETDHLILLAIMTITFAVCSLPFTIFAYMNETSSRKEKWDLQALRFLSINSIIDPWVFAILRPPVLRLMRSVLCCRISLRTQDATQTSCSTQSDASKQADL

`Cl.N=C(N)NN=Cc1ccc(Cl)c(Cl)c1` [Compound 1045.HCl, 1-(3,4-Dichlorobenzylideneamino)guanidine Hydrochloride] gave an EC50 ([1]; NPFF2b pEC50 Mean, R-SAT data, Table 2, multiple entries = different batches) of 1 µM, an Emax ([1]; R-SAT data, Table 2, multiple entries = different batches, read-out: NPFF2b % Efficacy Mean) of 67.6% and an Emax ([2]; R-SAT data, Table 2, multiple entries = different batches, read-out: NPFF1 % Efficacy Mean) of 17.7%. The side effects observed ([3]; 10 mg/kg) was “demonstrated writhing behavior and appeared lethargic”, the “side effects at doses less than 10 mg/kg” value [3] was “not observed” and the Emax [4] was 34%.
`COc1ccc(C=NNC(=N)N)c(OC)c1` [Compound 4003, 1-(2,4-Dimethoxybenzylideneamino)guanidine Hydrochloride] showed an Emax [1, 9] of 41%, an EC50 [1, 10] of 6.31 µM and an Emax [2, 11] of 41%. For the same compound, the EC50 ([2]; R-SAT, Table 1) was 12.6 µM.
Work on `COc1cccc(C=NNC(=N)N)c1OC` [Compound 4004, 1-(2,3-Dimethoxybenzylideneamino)guanidine Hydrochloride] yielded an Emax [1, 9] of 49%, an EC50 [1, 10] of 10 µM and an Emax [2, 11] of 15%.
For `CCOc1ccc(C=NNC(=N)N)cc1` [Compound 4005, 1-(4-Ethoxybenzylideneamino)guanidine Hydrochloride], the Emax [1, 9] was 49%, the EC50 [1, 10] was 5.01 µM and the Emax [2, 11] was 89%. It also gave an EC50 ([2]; R-SAT, Table 1) of 10 µM.
Work on `CCCOc1ccc(C=NNC(=N)N)cc1` [Compound 4006, 1-(4-n-Propoxybenzylideneamino)guanidine Hydrochloride] yielded an Emax [1, 9] of 53%, an EC50 [1, 10] of 2 µM and an Emax [2, 11] of 78%. The EC50 ([2]; R-SAT, Table 1) was 3.98 µM.
`[H]/N=C(\N)NN=Cc1ccc(Cl)cc1` [Compound 4008, 1-(4-Chlorobenzylideneamino)guanidine Hydrochloride] gave an Emax [1, 9] of 64%, an EC50 [1, 10] of 6.31 µM and an Emax [2, 11] of 47%. It also gave an EC50 ([2]; R-SAT, Table 1) of 3.98 µM.
Work on `COc1cc(OC)c(C=NNC(=N)N)cc1Br` [Compound 4015, 1-(5-Bromo-2,4-dimethoxybenzylideneamino)guanidine Hydrochloride] yielded an Emax [1, 9] of 64%, an EC50 [1, 10] of 2 µM and an Emax [2, 11] of 37%. For the same compound, the EC50 ([2]; R-SAT, Table 1) was 7.94 µM.
For `CN1CC[C@]23c4c5ccc(O)c4O[C@H]2[C@@H](O)C=C[C@H]3[C@H]1C5` [Morphine, morphine], the “A50, antinociception” value ([5]; 95% CI) was 9.8 µg and the “antinociception in 52° C. water tail flick test” value ([5]; morphine 3, 10, 30 μg, NPFF 100 μg, 1045 11.6 or 115.5 μg, 1DME 5.6, 55.6 or 556.0 μg) was “produced dose-related antinociception”.
In the case of `CC(C)C[C@H](NC(=O)[C@@H](N)Cc1ccccc1)C(=O)N[C@@H](Cc1ccccc1)C(=O)N[C@@H](CCC(N)=O)C(=O)N1CCC[C@H]1C(=O)N[C@@H](CCC(N)=O)C(=O)N[C@@H](CCCN=C(N)N)C(=O)N[C@@H](Cc1ccccc1)C(N)=O` [NPFF, Neuropeptide FF], the “barrel-rotation after ICV administration” value [6] is listed as “elicits barrel-rotation”, the “rats demonstrating barrel rolling seizures” value ([7]; 60 μg) is listed as 0 out of 3 and the “rats demonstrating barrel rolling seizures” value ([7]; 120 μg) is listed as 1 out of 2. The “rats demonstrating barrel rolling seizures” value ([7]; 150 μg) was 3 out of 5.
With `CCCCC[C@H](O)/C=C/[C@H]1[C@H](O)CC(=O)[C@@H]1C/C=C\CCCC(=O)O` [PGE2] the “response in un-transfected HEK-T cells” value [8] was “no response”.
